According to patent US20230085307A1, “PYRIDAZINONE COMPOUND AND HERBICIDE” (NISSAN CHEMICAL CORPORATION, priority 2019, published 2023):

The molecules below were run on green foxtail (assay: Test Example 5: herbicidal effect by foliage application, plastic box (Table 20, symbol G)). Conditions: foliage application, 320 g/ha, evaluated three weeks after application.
Format: in vivo, green foxtail (Setaria viridis)
Procedure, shortened: (§1)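 Sow seeds spot-wise in sterilized diluvial soil; cover with ~1.5 cm soil. Grow 14 days in greenhouse, 25° C. to 30° C. Spray foliage with emulsion diluted to predetermined amount. Rate effect after 3 weeks.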

SMILES	herbicidal effect on G: green foxtail
Cc1nn(C)c(=O)c(-c2c(-c3ccc(C(F)(F)F)cc3)sc3ccc(Cl)cc23)c1O [2-111]	0 (Herbicidal rate of 5% or less (almost no effect))
CCCC(=O)Oc1c(C)nn(C)c(=O)c1-c1c(-c2ccccc2OC)sc2ccc(C)cc12 [2-139]	3 (Herbicidal rate of 40% or more and less than 70%)

These molecules were tested on redroot pigweed (assay: Test Example 4: herbicidal effect by soil treatment (Table 19, symbol N)). Conditions: amount of applied herbicide 320 g/ha.
Format: in vivo, redroot pigweed (Amaranthus retroflexus)
Procedure, shortened: (§2)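 Soil-surface application: an emulsion agent diluted with water to the predetermined dose is sprayed uniformly over seeds lying under roughly 1.5 cm of sterilized diluvial soil. Boxes stay in a greenhouse at 25° C. to 30° C. Three weeks later, each species is graded on previously defined criteria.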

SMILES	N: redroot pigweed, herbicidal effect rating
Cc1nn(C)c(=O)c(-c2c(-c3ccc(C(F)(F)F)cc3)sc3ccc(Cl)cc23)c1O [2-111]	5 (Herbicidal rate of 90% or more (almost completely withered))
CCCC(=O)Oc1c(C)nn(C)c(=O)c1-c1c(-c2ccccc2OC)sc2ccc(C)cc12 [2-139]	0 (Herbicidal rate of 5% or less (almost no effect))

These molecules were tested on blackgrass (assay: Test Example 5: herbicidal effect by foliage application, plastic box (Table 20, symbol J)). Conditions: foliage application, 320 g/ha, evaluated three weeks after application.
Format: in vivo, blackgrass (Alopecurus myosuroides)
Procedure, shortened: as §1

SMILES	herbicidal effect on J: blackgrass
Cc1nn(C)c(=O)c(-c2c(-c3ccc(C(F)(F)F)cc3)sc3ccc(Cl)cc23)c1O [2-111]	5 (Herbicidal rate of 90% or more (almost completely withered))
CCCC(=O)Oc1c(C)nn(C)c(=O)c1-c1c(-c2ccccc2OC)sc2ccc(C)cc12 [2-139]	2 (Herbicidal rate of 20% or more and less than 40%)

Each molecule was assayed on windgrass (assay: Test Example 4: herbicidal effect by soil treatment (Table 19, symbol L)). Conditions: amount of applied herbicide 320 g/ha.
Format: in vivo, windgrass (Apera spica-venti)
Procedure, shortened: as §2

SMILES	L: windgrass, herbicidal effect rating
Cc1nn(C)c(=O)c(-c2c(-c3ccc(C(F)(F)F)cc3)sc3ccc(Cl)cc23)c1O [2-111]	5 (Herbicidal rate of 90% or more (almost completely withered))
CCCC(=O)Oc1c(C)nn(C)c(=O)c1-c1c(-c2ccccc2OC)sc2ccc(C)cc12 [2-139]	0 (Herbicidal rate of 5% or less (almost no effect))

What follows are molecules tested on southern crabgrass (assay: Test Example 5: herbicidal effect by foliage application, plastic box (Table 20, symbol F)). Conditions: foliage application, 320 g/ha, evaluated three weeks after application.
Format: in vivo, southern crabgrass (Digitaria ciliaris)
Procedure, shortened: as §1

SMILES	herbicidal effect on F: southern crabgrass
Cc1nn(C)c(=O)c(-c2c(-c3ccc(C(F)(F)F)cc3)sc3ccc(Cl)cc23)c1O [2-111]	0 (Herbicidal rate of 5% or less (almost no effect))
CCCC(=O)Oc1c(C)nn(C)c(=O)c1-c1c(-c2ccccc2OC)sc2ccc(C)cc12 [2-139]	3 (Herbicidal rate of 40% or more and less than 70%)

What follows are molecules tested on late watergrass (assay: Test Example 1: herbicidal activity, application before weed generation under submerged conditions (Table 16, symbol A)). Conditions: 320 g/ha applied herbicide.
Format: in vivo, late watergrass (Echinochloa oryzicola)
Procedure, shortened: (§3)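 Emulsion formulation, water-diluted to set dose, was put onto the flooded surface (4 cm depth, alluvial soil) the same day weeds were sown and 2.5-leaf rice transplanted. After 3 weeks at 25-30 °C under glass, each species was rated 0 (≤5% kill) to 5 (≥90% kill).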

SMILES	Herbicidal effect on A: late watergrass (grade 0-5)
Cc1nn(C)c(=O)c(-c2c(-c3ccc(C(F)(F)F)cc3)sc3ccc(Cl)cc23)c1O [2-111]	3 (Herbicidal rate of 40% or more and less than 70%)
CCCC(=O)Oc1c(C)nn(C)c(=O)c1-c1c(-c2ccccc2OC)sc2ccc(C)cc12 [2-139]	4 (Herbicidal rate of 70% or more and less than 90%)

What follows are molecules tested on barnyard grass (assay: Test Example 5: herbicidal effect by foliage application, plastic box (Table 20, symbol H)). Conditions: foliage application, 320 g/ha, evaluated three weeks after application.
Format: in vivo, barnyard grass (Echinochloa crus-galli)
Procedure, shortened: as §1

SMILES	herbicidal effect on H: barnyard grass
Cc1nn(C)c(=O)c(-c2c(-c3ccc(C(F)(F)F)cc3)sc3ccc(Cl)cc23)c1O [2-111]	4 (Herbicidal rate of 70% or more and less than 90%)
CCCC(=O)Oc1c(C)nn(C)c(=O)c1-c1c(-c2ccccc2OC)sc2ccc(C)cc12 [2-139]	4 (Herbicidal rate of 70% or more and less than 90%)

These molecules were tested on persian speedwell (assay: Test Example 5: herbicidal effect by foliage application, plastic box (Table 20, symbol R)). Conditions: foliage application, 320 g/ha, evaluated three weeks after application.
Format: in vivo, Persian speedwell (Veronica persica)
Procedure, shortened: as §1

SMILES	herbicidal effect on R: persian speedwell
Cc1nn(C)c(=O)c(-c2c(-c3ccc(C(F)(F)F)cc3)sc3ccc(Cl)cc23)c1O [2-111]	5 (Herbicidal rate of 90% or more (almost completely withered))
CCCC(=O)Oc1c(C)nn(C)c(=O)c1-c1c(-c2ccccc2OC)sc2ccc(C)cc12 [2-139]	4 (Herbicidal rate of 70% or more and less than 90%)

Each molecule was assayed on rice flat sedge (assay: Test Example 3: herbicidal effect by foliage application, Wagner pot (Table 18, symbol E)). Conditions: amount of applied herbicide 320 g/ha.
Format: in vivo, rice flat sedge (Cyperus iria)
Procedure, shortened: (§4)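 Plants were sown in alluvial soil held under 0.1–0.5 cm standing water and grown 14 days in a greenhouse at 25–30 °C. An emulsifiable formulation, water-diluted to the set dose, was then sprayed onto the foliage, and effects were scored three weeks later using previously defined criteria.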

SMILES	herbicidal effect on E: rice flat sedge
Cc1nn(C)c(=O)c(-c2c(-c3ccc(C(F)(F)F)cc3)sc3ccc(Cl)cc23)c1O [2-111]	3 (Herbicidal rate of 40% or more and less than 70%)
CCCC(=O)Oc1c(C)nn(C)c(=O)c1-c1c(-c2ccccc2OC)sc2ccc(C)cc12 [2-139]	4 (Herbicidal rate of 70% or more and less than 90%)

The molecules below were run on Italian ryegrass (assay: Test Example 4: herbicidal effect by soil treatment (Table 19, symbol K)). Conditions: amount of applied herbicide 320 g/ha.
Format: in vivo, Italian ryegrass (Lolium multiflorum)
Procedure, shortened: as §2

SMILES	K: Italian ryegrass, herbicidal effect rating
Cc1nn(C)c(=O)c(-c2c(-c3ccc(C(F)(F)F)cc3)sc3ccc(Cl)cc23)c1O [2-111]	3 (Herbicidal rate of 40% or more and less than 70%)
CCCC(=O)Oc1c(C)nn(C)c(=O)c1-c1c(-c2ccccc2OC)sc2ccc(C)cc12 [2-139]	1 (Herbicidal rate of 5% or more and less than 20%)

Each molecule was assayed on late watergrass (assay: Test Example 2: herbicidal activity, application during weed generation under submerged conditions (Table 17, symbol A)). Conditions: AAH 320 g/ha; application during weed generation, submerged conditions.
Format: in vivo, late watergrass (Echinochloa oryzicola)
Procedure, shortened: (§5)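 Effect on each weed is rated three weeks post-treatment, using the same scoring criteria as the preceding test. Plants grow from mixed-sown seed in flooded alluvial soil (4 cm water) at 25° C. to 30° C., and are treated at one to two leaves with diluted emulsion dropped onto the water.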

SMILES	herbicidal effect rating, A: late watergrass
Cc1nn(C)c(=O)c(-c2c(-c3ccc(C(F)(F)F)cc3)sc3ccc(Cl)cc23)c1O [2-111]	2 (Herbicidal rate of 20% or more and less than 40%)
CCCC(=O)Oc1c(C)nn(C)c(=O)c1-c1c(-c2ccccc2OC)sc2ccc(C)cc12 [2-139]	3 (Herbicidal rate of 40% or more and less than 70%)

The molecules below were run on Chinese sprangletop (assay: Test Example 3: herbicidal effect by foliage application, Wagner pot (Table 18, symbol D)). Conditions: amount of applied herbicide 320 g/ha.
Format: in vivo, chinese sprangletop (Leptochloa chinensis)
Procedure, shortened: as §4

SMILES	herbicidal effect on D: Chinese sprangletop
Cc1nn(C)c(=O)c(-c2c(-c3ccc(C(F)(F)F)cc3)sc3ccc(Cl)cc23)c1O [2-111]	2 (Herbicidal rate of 20% or more and less than 40%)
CCCC(=O)Oc1c(C)nn(C)c(=O)c1-c1c(-c2ccccc2OC)sc2ccc(C)cc12 [2-139]	0 (Herbicidal rate of 5% or less (almost no effect))

The molecules below were run on oval-leafed pondweed (assay: Test Example 2: herbicidal activity, application during weed generation under submerged conditions (Table 17, symbol C)). Conditions: AAH 320 g/ha; application during weed generation, submerged conditions.
Format: in vivo, oval-leafed pondweed (Monochoria vaginalis)
Procedure, shortened: as §5

SMILES	herbicidal effect rating, C: oval-leafed pondweed
Cc1nn(C)c(=O)c(-c2c(-c3ccc(C(F)(F)F)cc3)sc3ccc(Cl)cc23)c1O [2-111]	0 (Herbicidal rate of 5% or less (almost no effect))
CCCC(=O)Oc1c(C)nn(C)c(=O)c1-c1c(-c2ccccc2OC)sc2ccc(C)cc12 [2-139]	0 (Herbicidal rate of 5% or less (almost no effect))

What follows are molecules tested on Japanese bulrush (assay: Test Example 1: herbicidal activity, application before weed generation under submerged conditions (Table 16, symbol B)). Conditions: 320 g/ha applied herbicide.
Format: in vivo, Japanese bulrush (Schoenoplectus juncoides)
Procedure, shortened: as §3

SMILES	Herbicidal effect on B: Japanese bulrush (grade 0-5)
Cc1nn(C)c(=O)c(-c2c(-c3ccc(C(F)(F)F)cc3)sc3ccc(Cl)cc23)c1O [2-111]	3 (Herbicidal rate of 40% or more and less than 70%)
CCCC(=O)Oc1c(C)nn(C)c(=O)c1-c1c(-c2ccccc2OC)sc2ccc(C)cc12 [2-139]	3 (Herbicidal rate of 40% or more and less than 70%)

The molecules below were run on barnyard grass (assay: Test Example 3: herbicidal effect by foliage application, Wagner pot (Table 18, symbol H)). Conditions: amount of applied herbicide 320 g/ha.
Format: in vivo, barnyard grass (Echinochloa crus-galli)
Procedure, shortened: as §4

SMILES	herbicidal effect on H: barnyard grass
Cc1nn(C)c(=O)c(-c2c(-c3ccc(C(F)(F)F)cc3)sc3ccc(Cl)cc23)c1O [2-111]	4 (Herbicidal rate of 70% or more and less than 90%)
CCCC(=O)Oc1c(C)nn(C)c(=O)c1-c1c(-c2ccccc2OC)sc2ccc(C)cc12 [2-139]	4 (Herbicidal rate of 70% or more and less than 90%)

Each molecule was assayed on wild oat (assay: Test Example 5: herbicidal effect by foliage application, plastic box (Table 20, symbol I)). Conditions: foliage application, 320 g/ha, evaluated three weeks after application.
Format: in vivo, wild oat (Avena fatua)
Procedure, shortened: as §1

SMILES	herbicidal effect on I: wild oat
Cc1nn(C)c(=O)c(-c2c(-c3ccc(C(F)(F)F)cc3)sc3ccc(Cl)cc23)c1O [2-111]	0 (Herbicidal rate of 5% or less (almost no effect))
CCCC(=O)Oc1c(C)nn(C)c(=O)c1-c1c(-c2ccccc2OC)sc2ccc(C)cc12 [2-139]	1 (Herbicidal rate of 5% or more and less than 20%)
